Laboratory results reported in PubChem BioAssay AID1845216 (Molecular Pharmacology Branch, DTP, NCI, 2023).

System: SW 982 tumor spheroid viability
Experiment: Anticancer human tumor SW 982 cell line growth inhibition;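 note: spheroids exposed to compound for 7 days before readout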
Conditions: spheroids with HUVEC and MSC; for IC50: curve of first compound; for viability, T/C: stronger effect = lower value
Description: Multicellular complex tumor spheroid response to DNA repair inhibitors in combination with DNA-damaging drugs
This study explores the anticancer activities of DNA-damaging drugs and inhibitors of DNA damage repair, both as single agents and in combinations. Complex tumor spheroids comprised of malignant cells, endothelial cells and mesenchymal stem cells served as an in vitro model for human solid tumors. This model system incorporates physiologically relevant features and patient-derived or established malignant cell lines with clinically relevant genetic alterations from many tumor types. Twenty-six patient-derived or established malignant cell lines were evaluated representing sarcoma, melanoma, small cell lung cancer (SCLC), non-small cell lung cancer (NSCLC), as well as bladder, ovarian and pancreatic cancers. The concentration ranges selected for each drug and investigational agent were based upon clinically achievable concentrations if the clinical Cmax of the agent was known.
Compounds. The drugs and compounds olaparib (NSC753686), talazoparib (NSC767125), berzosertib (NSC777718), elimusertib (NSC800525), nedisertib (NSC802822), VX-984 (NSC792969), AZD-1390 (NSC803789), temozolomide (NSC362856), topotecan (NSC609699), trabectedin (NSC813783), staurosporine (NSC755774), and gemcitabine (NSC613327) were obtained from the National Cancer Institute (NCI) Developmental Therapeutics Program Chemical Repository. The FDA-approved anticancer drug set is available from the Developmental Therapeutics Program at https://dtp.cancer.gov/organization/dscb/obtaining/available_plates.htm. […] The stock solutions were prepared in dimethyl sulfoxide (DMSO, Sigma-Aldrich, St. Louis, MO, cat. D2650) at 400-fold the tested concentration and stored at -70 degrees C. Prior to their use, the stock solutions were diluted in fresh medium and the final DMSO concentration in the assay was 0.25% (v/v). All drugs and investigational agents were tested over a range starting from a high concentration at or near the clinical Cmax and decreasing in half-log increments. If the clinical Cmax for an agent had not been determined, the highest concentration tested was 10 microM.
Cell Lines. The patient-derived cancer cell (PDC) lines: 156681-154-R-J1-PDC, 283228-195-R-J1-PDC, 287954-098-R-J1-PDC, 292921-168-R-J2-PDC, 349418-098-R-PDC, 425362-245-T-J1-PDC, 556581-035-R-J1-PDC, and BL0293-F563-PDC were received from the NCI Patient-Derived Models Repository (PDMR, https://pdmr.cancer.gov). The established cell lines HS-SY-2 (RRID:CVCL_8719), MPNST, and SYO-1 (RRID:CVCL_7146) were obtained from the Sloan Kettering Institute. The alveolar soft parts sarcoma cell line ASPS-1 (RRID:CVCL_S738) was established at the NCI and grown from internal seed stocks. The following established cell lines were purchased from the American Type Culture Collection (ATCC, Manassas, VA): G-401 (ATCC, cat. CRL-1441, RRID:CVCL_0270), SW982 (ATCC, cat. HTB-93, RRID:CVCL_1734), VA-ES-BJ (ATCC, cat. CRL-2138, RRID:CVCL_1785), NCI-H719 (ATCC, cat. CRL-5837, RRID:CVCL_1582), NCI-H196 (ATCC, cat. CRL-5823, RRID:CVCL_1509), NCI-H841 (ATCC, cat. CRL-5845, RRID:CVCL_1595), NCI-H1618 (ATCC, cat. CRL-5879, RRID:CVCL_1480), NCI-H1876 (ATCC, cat. CRL-5902, RRID:CVCL_1503), DMS 114 (ATCC, cat. CRL-2066; RRID:CVCL_1174), NCI-H211 (ATCC, cat. CRL-5824; RRID:CVCL_1529), and SW 1271 (ATCC, cat. CRL-2177, RRID:CVCL_1716). The small cell lung cancer cell line COR-L88 was purchased from Sigma-Aldrich (cat. 92031917-1VL, RRID:CVCL_1141). The non-small cell lung cancer cell lines NCI-H226 (RRID:CVCL_1544) and NCI-H322M (RRID:CVCL_1557) were established at the NCI and grown from internal seed stocks. Pooled donor human umbilical vein endothelial cells (HUVEC, Lonza, cat. CC-2519) and human mesenchymal stem cells (hMSC, Lonza, cat. PT-2501) were purchased from Lonza (Walkersville, MD).
Cell Culture. All cells were maintained in an incubator at 37 degrees C and 5% CO2 with 95% humidity. […]

Question: With `Cc1sc2c(c1C)C(c1ccc(Cl)cc1)=NC(CC(=O)Nc1ccc(O)cc1)c1nnc(C)n1-2` (stereo not given) + Cn1nnc2c(C(N)=O)ncn2c1=O as the compound, how does the IC50 (second compound 1 µM) read?
Answer: 0.294 µM

Question: And the IC50 (second compound 3.16 µM)?
Answer: 0.24 µM

Question: What about the IC50 (second compound 10 µM) of the same compound?
Answer: 0.158 µM

Question: What about the IC50 (second compound 31.6 µM) of the same compound?
Answer: 0.106 µM

Question: What about the IC50 (second compound 100 µM) of the same compound?
Answer: 0.0922 µM

Question: What about the viability, T/C (second compound 1 µM, first compound 0.00949 µM) of the same compound?
Answer: 113%

Question: What about the viability, T/C (second compound 1 µM, first compound 0.03 µM) of the same compound?
Answer: 101%

Question: And the viability, T/C (second compound 1 µM, first compound 0.0949 µM)?
Answer: 78.2%

Question: And the viability, T/C (second compound 1 µM, first compound 0.3 µM)?
Answer: 47.6%

Question: What about the viability, T/C (second compound 1 µM, first compound 0.949 µM) of the same compound?
Answer: 35%

Question: And the viability, T/C (second compound 1 µM, first compound 3 µM)?
Answer: 25%

Question: And the viability, T/C (second compound 3.16 µM, first compound 0.00949 µM)?
Answer: 103%

Question: And the viability, T/C (second compound 3.16 µM, first compound 0.03 µM)?
Answer: 104%

Question: And the viability, T/C (second compound 3.16 µM, first compound 0.0949 µM)?
Answer: 76.6%

Question: And the viability, T/C (second compound 3.16 µM, first compound 0.3 µM)?
Answer: 43.8%

Question: What about the viability, T/C (second compound 3.16 µM, first compound 0.949 µM) of the same compound?
Answer: 27.7%

Question: And the viability, T/C (second compound 3.16 µM, first compound 3 µM)?
Answer: 21.4%

Question: And the viability, T/C (second compound 10 µM, first compound 0.00949 µM)?
Answer: 87.8%

Question: What about the viability, T/C (second compound 10 µM, first compound 0.03 µM) of the same compound?
Answer: 81%

Question: And the viability, T/C (second compound 10 µM, first compound 0.0949 µM)?
Answer: 60.8%

Question: And the viability, T/C (second compound 10 µM, first compound 0.3 µM)?
Answer: 36.4%

Question: And the viability, T/C (second compound 10 µM, first compound 0.949 µM)?
Answer: 21.6%

Question: What about the viability, T/C (second compound 10 µM, first compound 3 µM) of the same compound?
Answer: 17.8%

Question: And the viability, T/C (second compound 31.6 µM, first compound 0.00949 µM)?
Answer: 76.2%

Question: And the viability, T/C (second compound 31.6 µM, first compound 0.03 µM)?
Answer: 67.6%

Question: What about the viability, T/C (second compound 31.6 µM, first compound 0.0949 µM) of the same compound?
Answer: 53.9%

Question: What about the viability, T/C (second compound 31.6 µM, first compound 0.3 µM) of the same compound?
Answer: 27.8%

Question: What about the viability, T/C (second compound 31.6 µM, first compound 0.949 µM) of the same compound?
Answer: 19.7%

Question: And the viability, T/C (second compound 31.6 µM, first compound 3 µM)?
Answer: 14.7%

Question: And the viability, T/C (second compound 100 µM, first compound 0.00949 µM)?
Answer: 67.7%

Question: And the viability, T/C (second compound 100 µM, first compound 0.03 µM)?
Answer: 66.4%

Question: And the viability, T/C (second compound 100 µM, first compound 0.0949 µM)?
Answer: 49.6%

Question: What about the viability, T/C (second compound 100 µM, first compound 0.3 µM) of the same compound?
Answer: 21.2%

Question: And the viability, T/C (second compound 100 µM, first compound 0.949 µM)?
Answer: 16.1%

Question: What about the viability, T/C (second compound 100 µM, first compound 3 µM) of the same compound?
Answer: 20.6%

Question: What does the source list for `COc1ccc([C@@H](O)c2cc(-c3ncnc4cc(N5CCOCC5)ccc34)c(F)cc2Cl)nn1` + Cn1nnc2c(C(N)=O)ncn2c1=O?
Answer: IC50 (second compound 1 µM): 6.29 µM; IC50 (second compound 3.16 µM): 3.83 µM; IC50 (second compound 10 µM): 4.03 µM; IC50 (second compound 31.6 µM): 1.18 µM; IC50 (second compound 100 µM): 0.283 µM; viability, T/C (second compound 1 µM, first compound 0.0316 µM): 90.6%; viability, T/C (second compound 1 µM, first compound 0.1 µM): 95.4%; viability, T/C (second compound 1 µM, first compound 0.316 µM): 93.3%; viability, T/C (second compound 1 µM, first compound 1 µM): 84.9%; viability, T/C (second compound 1 µM, first compound 3.16 µM): 81.6%; viability, T/C (second compound 1 µM, first compound 10 µM): 29.6%; viability, T/C (second compound 3.16 µM, first compound 0.0316 µM): 76.7%; viability, T/C (second compound 3.16 µM, first compound 0.1 µM): 83.8%; viability, T/C (second compound 3.16 µM, first compound 0.316 µM): 90.1%; viability, T/C (second compound 3.16 µM, first compound 1 µM): 70.4%; viability, T/C (second compound 3.16 µM, first compound 3.16 µM): 55.9%; viability, T/C (second compound 3.16 µM, first compound 10 µM): 26%; viability, T/C (second compound 10 µM, first compound 0.0316 µM): 76.9%; viability, T/C (second compound 10 µM, first compound 0.1 µM): 70%; viability, T/C (second compound 10 µM, first compound 0.316 µM): 73%; viability, T/C (second compound 10 µM, first compound 1 µM): 57.6%; viability, T/C (second compound 10 µM, first compound 3.16 µM): 63.2%; viability, T/C (second compound 10 µM, first compound 10 µM): 18.4%; viability, T/C (second compound 31.6 µM, first compound 0.0316 µM): 63.5%; viability, T/C (second compound 31.6 µM, first compound 0.1 µM): 63.2%; viability, T/C (second compound 31.6 µM, first compound 0.316 µM): 60.4%; viability, T/C (second compound 31.6 µM, first compound 1 µM): 51.5%; viability, T/C (second compound 31.6 µM, first compound 3.16 µM): 38.5%; viability, T/C (second compound 31.6 µM, first compound 10 µM): 25.5%; viability, T/C (second compound 100 µM, first compound 0.0316 µM): 59.9%; viability, T/C (second compound 100 µM, first compound 0.1 µM): 57.9%; viability, T/C (second compound 100 µM, first compound 0.316 µM): 48.1%; viability, T/C (second compound 100 µM, first compound 1 µM): 39.3%; viability, T/C (second compound 100 µM, first compound 3.16 µM): 32.5%; viability, T/C (second compound 100 µM, first compound 10 µM): 15.6%
